# From ChEMBL document CHEMBL1128766, “The synthesis and lactamase inhibitory activity of 6-(carboxymethylene)penicillins and 7-(carboxymethylene)cephalosporins” (Bioorg Med Chem Lett, 1995)
# Key:
# Escherichia coli [1] = experiment: […] antibacterial activity (synergistic study) against Escherichia coli OXA-1; assay type: functional
# Escherichia coli [2] = experiment: […] antibacterial activity (synergistic study) against Escherichia coli TEM-1; assay type: functional
# Escherichia coli [3] = experiment: […] antibacterial activity (synergistic study) against Escherichia coli TEM-2; assay type: functional
# Enterobacter cloacae [4] = experiment: […] antibacterial activity (synergistic study) against Enterobacter cloacae 12368; assay type: functional
# Enterobacter cloacae [5] = experiment: […] antibacterial activity (synergistic study) against Enterobacter cloacae P99; assay type: functional
# Staphylococcus aureus = experiment: […] antibacterial activity (synergistic study) against Staphylococcus aureus ATCC 29213; assay type: functional
# Beta-lactamase TEM = Beta-lactamase TEM (Escherichia coli, UniProt P62593); experiment: Inhibitory activity against beta-Lactamase enzyme derived from Escherichia coli WC3310 TEM-2
# Chain of Beta-lactamase TEM (P62593 whole entry): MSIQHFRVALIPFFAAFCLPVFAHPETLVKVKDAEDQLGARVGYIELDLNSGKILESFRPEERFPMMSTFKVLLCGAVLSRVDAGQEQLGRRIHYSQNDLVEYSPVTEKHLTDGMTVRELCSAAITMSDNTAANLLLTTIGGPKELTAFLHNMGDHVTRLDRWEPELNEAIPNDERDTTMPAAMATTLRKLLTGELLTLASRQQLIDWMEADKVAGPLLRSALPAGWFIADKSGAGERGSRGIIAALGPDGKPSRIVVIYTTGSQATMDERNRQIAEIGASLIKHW
# Beta-lactamase [6] = target: T1, Beta-lactamase (Enterobacter cloacae, UniProt P05364)
# T1 sequence (P05364 whole entry): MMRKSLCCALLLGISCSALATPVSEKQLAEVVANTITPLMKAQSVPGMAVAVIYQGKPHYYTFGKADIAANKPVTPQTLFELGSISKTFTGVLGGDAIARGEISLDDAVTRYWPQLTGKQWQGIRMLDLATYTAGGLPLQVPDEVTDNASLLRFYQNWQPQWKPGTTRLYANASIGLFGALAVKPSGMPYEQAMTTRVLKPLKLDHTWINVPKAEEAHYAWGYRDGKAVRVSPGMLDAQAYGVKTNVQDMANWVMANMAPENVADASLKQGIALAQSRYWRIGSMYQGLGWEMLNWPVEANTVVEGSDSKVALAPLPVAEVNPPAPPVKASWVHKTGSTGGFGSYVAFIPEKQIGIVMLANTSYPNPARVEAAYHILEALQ
# Description: Inhibitory activity against beta-Lactamase enzyme derived from Enterobacter cloacae P99
# Beta-lactamase [7] = target: T1, Beta-lactamase; remark: listed apart in the source
# Description: Inhibitory activity against beta-Lactamase enzyme derived from Enterobacter cloacae SC 12368 E-2
smiles,measurement,setting,value
CC(=O)OCC1=C(C(=O)[O-])N2C(=O)/C(=C/C(=O)OC(C)(C)C)[C@H]2S(=O)(=O)C1.[Na+],MIC,Escherichia coli [1],> 128 µg/mL
same,MIC,Escherichia coli [2],> 128 µg/mL
same,MIC,Escherichia coli [3],> 128 µg/mL
same,MIC,Enterobacter cloacae [4],> 128 µg/mL
same,MIC,Enterobacter cloacae [5],> 128 µg/mL
same,MIC,Staphylococcus aureus,4 µg/mL
CC(C)(C)OC(=O)/C=C1/C(=O)N2[C@@H](C(=O)[O-])C(C)(C)S(=O)(=O)[C@H]12.[Na+],IC50,Beta-lactamase TEM,136 nM
same,MIC,Escherichia coli [1],> 128 µg/mL
same,MIC,Escherichia coli [2],> 128 µg/mL
same,MIC,Escherichia coli [3],> 128 µg/mL
same,MIC,Enterobacter cloacae [4],> 128 µg/mL
same,MIC,Enterobacter cloacae [5],> 128 µg/mL
same,MIC,Staphylococcus aureus,> 128 µg/mL
same,IC50,Beta-lactamase [6],4090 nM
same,IC50,Beta-lactamase [7],13600 nM
CC1(C)[C@H](C(=O)[O-])N2C(=O)/C(=C/C(=O)[O-])[C@H]2S1(=O)=O.[Na+].[Na+],IC50,Beta-lactamase TEM,120 nM
same,MIC,Escherichia coli [1],> 128 µg/mL
same,MIC,Escherichia coli [2],> 128 µg/mL
same,MIC,Escherichia coli [3],> 128 µg/mL
same,MIC,Enterobacter cloacae [4],> 128 µg/mL
same,MIC,Enterobacter cloacae [5],> 128 µg/mL
same,MIC,Staphylococcus aureus,> 128 µg/mL
same,IC50,Beta-lactamase [6],45 nM
same,IC50,Beta-lactamase [7],91 nM
COC(=O)/C=C1/C(=O)N2[C@@H](C(=O)[O-])C(C)(C)S(=O)(=O)[C@H]12.[Na+],IC50,Beta-lactamase TEM,308 nM
same,MIC,Escherichia coli [1],> 128 µg/mL
same,MIC,Escherichia coli [2],> 128 µg/mL
same,MIC,Escherichia coli [3],> 128 µg/mL
same,MIC,Enterobacter cloacae [4],> 128 µg/mL
same,MIC,Enterobacter cloacae [5],> 128 µg/mL
same,MIC,Staphylococcus aureus,> 128 µg/mL
same,IC50,Beta-lactamase [6],154 nM
same,IC50,Beta-lactamase [7],615 nM
CCN1CCN(C(=O)NC(C(=O)N[C@H]2C(=O)N3[C@H]2SC(C)(C)[C@H]3C(=O)O)c2ccccc2)C(=O)C1=O.COC(=O)/C=C1/C(=O)N2[C@@H](C(=O)[O-])C(C)(C)S(=O)(=O)[C@H]12.[Na+] (some centres undefined),MIC,Escherichia coli [1],16 µg/mL
same,MIC,Escherichia coli [2],64 µg/mL
same,MIC,Escherichia coli [3],128 µg/mL
same,MIC,Enterobacter cloacae [4],16 µg/mL
same,MIC,Enterobacter cloacae [5],128 µg/mL
same,MIC,Staphylococcus aureus,1 µg/mL
CC(=O)OCC1=C(C(=O)[O-])N2C(=O)/C(=C/C(=O)[O-])[C@H]2S(=O)(=O)C1.[Na+].[Na+],IC50,Beta-lactamase TEM,400 nM
same,MIC,Escherichia coli [1],> 128 µg/mL
same,MIC,Escherichia coli [2],> 128 µg/mL
same,MIC,Escherichia coli [3],> 128 µg/mL
same,MIC,Enterobacter cloacae [4],> 128 µg/mL
same,MIC,Enterobacter cloacae [5],> 128 µg/mL
same,MIC,Staphylococcus aureus,16 µg/mL
same,IC50,Beta-lactamase [6],> 20000 nM
same,IC50,Beta-lactamase [7],> 20000 nM
CC(C)(C)OC(=O)/C=C1/C(=O)N2[C@@H]1SC(C)(C)[C@@H]2C(=O)O,IC50,Beta-lactamase TEM,> 20000 nM
same,IC50,Beta-lactamase [6],8950 nM
same,IC50,Beta-lactamase [7],> 20000 nM
COC(=O)/C=C1/C(=O)N2C(C(=O)O)=C(COC(C)=O)CS[C@H]12,IC50,Beta-lactamase TEM,> 20000 nM
same,IC50,Beta-lactamase [6],> 20000 nM
same,IC50,Beta-lactamase [7],> 20000 nM
CC(=O)/C=C1/C(=O)N2[C@@H]1SC(C)(C)[C@@H]2C(=O)O,IC50,Beta-lactamase TEM,3 nM
same,IC50,Beta-lactamase [6],361 nM
same,IC50,Beta-lactamase [7],5410 nM
COC(=O)/C=C1/C(=O)N2[C@@H]1SC(C)(C)[C@@H]2C(=O)O,IC50,Beta-lactamase TEM,> 20000 nM
same,IC50,Beta-lactamase [6],> 20000 nM
same,IC50,Beta-lactamase [7],> 20000 nM
COC(=O)/C=C1/C(=O)N2C(C(=O)[O-])=C(COC(C)=O)CS(=O)(=O)[C@H]12.[Na+],IC50,Beta-lactamase TEM,37 nM
same,MIC,Escherichia coli [1],> 128 µg/mL
same,MIC,Escherichia coli [2],> 128 µg/mL
same,MIC,Escherichia coli [3],> 128 µg/mL
same,MIC,Enterobacter cloacae [4],> 128 µg/mL
same,MIC,Enterobacter cloacae [5],> 128 µg/mL
same,MIC,Staphylococcus aureus,> 128 µg/mL
same,IC50,Beta-lactamase [6],> 20000 nM
same,IC50,Beta-lactamase [7],> 20000 nM
C=C=C1C(=O)N2C(C(=O)O)=C(COC(C)=O)CS(=O)(=O)[C@H]12,IC50,Beta-lactamase TEM,> 20000 nM
same,IC50,Beta-lactamase [6],130 nM
same,IC50,Beta-lactamase [7],260 nM
CC(=O)OCC1=C(C(=O)O)N2C(=O)/C(=C/C(=O)O)[C@H]2SC1,IC50,Beta-lactamase TEM,> 20000 nM
same,IC50,Beta-lactamase [6],> 20000 nM
same,IC50,Beta-lactamase [7],> 20000 nM
CC1(C)[C@H](C(=O)[O-])N2C(=O)/C(=C/C(=O)[O-])[C@H]2S1(=O)=O.CCN1CCN(C(=O)NC(C(=O)N[C@H]2C(=O)N3[C@H]2SC(C)(C)[C@H]3C(=O)O)c2ccccc2)C(=O)C1=O.[Na+].[Na+] (some centres undefined),MIC,Escherichia coli [1],16 µg/mL
same,MIC,Escherichia coli [2],32 µg/mL
same,MIC,Escherichia coli [3],64 µg/mL
same,MIC,Enterobacter cloacae [4],16 µg/mL
same,MIC,Enterobacter cloacae [5],128 µg/mL
same,MIC,Staphylococcus aureus,4 µg/mL
CC(=O)OCC1=C(C(=O)[O-])N2C(=O)/C(=C/C(=O)OC(C)(C)C)[C@H]2S(=O)(=O)C1.CCN1CCN(C(=O)NC(C(=O)N[C@H]2C(=O)N3[C@H]2SC(C)(C)[C@H]3C(=O)O)c2ccccc2)C(=O)C1=O.[Na+] (some centres undefined),MIC,Escherichia coli [1],64 µg/mL
same,MIC,Escherichia coli [2],64 µg/mL
same,MIC,Escherichia coli [3],128 µg/mL
same,MIC,Enterobacter cloacae [4],16 µg/mL
same,MIC,Enterobacter cloacae [5],128 µg/mL
same,MIC,Staphylococcus aureus,4 µg/mL
C=C1C(=O)N2C(C(=O)O)=C(COC(C)=O)CS(=O)(=O)[C@H]12,IC50,Beta-lactamase TEM,800 nM
same,IC50,Beta-lactamase [6],25 nM
same,IC50,Beta-lactamase [7],25 nM
CC(=O)OCC1=C(C(=O)[O-])N2C(=O)/C(=C/C(=O)[O-])[C@H]2S(=O)(=O)C1.CCN1CCN(C(=O)NC(C(=O)N[C@H]2C(=O)N3[C@H]2SC(C)(C)[C@H]3C(=O)O)c2ccccc2)C(=O)C1=O.[Na+].[Na+] (some centres undefined),MIC,Escherichia coli [1],64 µg/mL
same,MIC,Escherichia coli [2],64 µg/mL
same,MIC,Escherichia coli [3],128 µg/mL
same,MIC,Enterobacter cloacae [4],32 µg/mL
same,MIC,Enterobacter cloacae [5],128 µg/mL
same,MIC,Staphylococcus aureus,4 µg/mL
CC1(C)S[C@@H]2/C(=C\C(=O)O)C(=O)N2[C@H]1C(=O)O,IC50,Beta-lactamase TEM,> 20000 nM
same,IC50,Beta-lactamase [6],13900 nM
same,IC50,Beta-lactamase [7],> 20000 nM
CCN1CCN(C(=O)NC(C(=O)N[C@H]2C(=O)N3[C@H]2SC(C)(C)[C@H]3C(=O)O)c2ccccc2)C(=O)C1=O.COC(=O)/C=C1/C(=O)N2C(C(=O)[O-])=C(COC(C)=O)CS(=O)(=O)[C@H]12.[Na+] (some centres undefined),MIC,Escherichia coli [1],64 µg/mL
same,MIC,Escherichia coli [2],32 µg/mL
same,MIC,Escherichia coli [3],64 µg/mL
same,MIC,Enterobacter cloacae [4],16 µg/mL
same,MIC,Enterobacter cloacae [5],128 µg/mL
same,MIC,Staphylococcus aureus,4 µg/mL
CC(C)(C)OC(=O)/C=C1/C(=O)N2[C@@H](C(=O)[O-])C(C)(C)S(=O)(=O)[C@H]12.CCN1CCN(C(=O)NC(C(=O)N[C@H]2C(=O)N3[C@H]2SC(C)(C)[C@H]3C(=O)O)c2ccccc2)C(=O)C1=O.[Na+] (some centres undefined),MIC,Escherichia coli [1],32 µg/mL
same,MIC,Escherichia coli [2],128 µg/mL
same,MIC,Escherichia coli [3],> 128 µg/mL
same,MIC,Enterobacter cloacae [4],32 µg/mL
same,MIC,Enterobacter cloacae [5],128 µg/mL
same,MIC,Staphylococcus aureus,2 µg/mL
"C[C@]1(Cn2ccnn2)[C@H](C(=O)O)N2C(=O)C[C@H]2S1(=O)=O (single isomer, unassigned) [TAZOBACTAM]",MIC,Escherichia coli [1],> 128 µg/mL
same,MIC,Escherichia coli [2],> 128 µg/mL
same,MIC,Escherichia coli [3],> 128 µg/mL
same,MIC,Enterobacter cloacae [4],> 128 µg/mL
same,MIC,Enterobacter cloacae [5],> 128 µg/mL
same,MIC,Staphylococcus aureus,64 µg/mL
"CCN1CCN(C(=O)N[C@@H](C(=O)NC2C(=O)N3C2SC(C)(C)C3C(=O)O)c2ccccc2)C(=O)C1=O.C[C@]1(Cn2ccnn2)[C@H](C(=O)O)N2C(=O)C[C@H]2S1(=O)=O (single isomer, unassigned; form 1)",MIC,Escherichia coli [1],16 µg/mL
same,MIC,Escherichia coli [2],2 µg/mL
same,MIC,Escherichia coli [3],8 µg/mL
same,MIC,Enterobacter cloacae [4],16 µg/mL
same,MIC,Enterobacter cloacae [5],16 µg/mL
same,MIC,Staphylococcus aureus,1 µg/mL
"CCN1CCN(C(=O)N[C@@H](C(=O)NC2C(=O)N3C2SC(C)(C)C3C(=O)O)c2ccccc2)C(=O)C1=O (single isomer, unassigned; form 2) [PIPERACILLIN]",MIC,Escherichia coli [1],64 µg/mL
same,MIC,Escherichia coli [2],> 128 µg/mL
same,MIC,Escherichia coli [3],> 128 µg/mL
same,MIC,Enterobacter cloacae [4],16 µg/mL
same,MIC,Enterobacter cloacae [5],> 128 µg/mL
same,MIC,Staphylococcus aureus,4 µg/mL
